# Test results reported in PMC4673326, “Design and Synthesis of a Novel Cationic Peptide with Potent and Broad-Spectrum Antimicrobial Activity” (BioMed Research International, 2015).
# Ends that are not written are not given here.
# Key:
# Type in all cases: cell-based
# Staphylococcus aureus = system: Staphylococcus aureus
# Protocol: (§1) Two Gram-positive bacteria, 3 Gram-negative bacteria, and 2 fungi were selected to measure antibacterial activity of peptides. The strains were provided by Department of Microbiology in China Pharmaceutical University and were stored at 4°C until use.
# (§2) Antimicrobial activity was evaluated using an inhibition zone assay or determination of the minimal inhibitory concentration (MIC) value with minor modifications as described previously: • Inhibition zone assay: agar plates were seeded with strains (about 10^6 cells in 10 mL of 1% agar medium). Wells (3 mm in diameter) were punched out and a 5 μL peptide sample dissolved in water was loaded. Controls were loaded with water. After incubation at 37°C overnight, the diameter of the inhibition zone was determined. • Determination of the MIC value: MICs were determined using a standard serial dilution method in appropriate medium for each bacterial strain listed in Table 3. In brief, 1 mL of different peptides dilution solutions was poured into a series of sterile plates, and then 9 mL appropriate medium that was preincubated at 37°C was added into a plate and was mixed gently to reach various concentrations (512, 256, 128, 64, 32, 16, 8, 4, 2, 1, and 0.5 μg/mL). Bacteria were added to the 96-well plates. The amount of bacteria for each spot is approximately 10^4 to 10^5 CFU/mL. After incubating the inoculated plate at 37°C for 16 to 18 hours, MICs were determined as the lowest peptide concentration that inhibited bacterial growth. All MICs were determined in two independent experiments performed in duplicate.
# [1] = system: Staphylococcus epidermidis
# Protocol: as §1, §2
# Aspergillus niger = system: Aspergillus niger
# Protocol: as §1, §2
# Pseudomonas aeruginosa = system: Pseudomonas aeruginosa
# Protocol: as §1, §2
# Escherichia coli = system: Escherichia coli
# Protocol: as §1, §2
# Klebsiella = assay: MIC, serial dilution method; settings: Klebsiella aeruginosa (so in the source); serial dilution 512-0.5 μg/mL, Luria-Bertani, 37°C, 16 to 18 hours; mean of three independent experiments in duplicate
# Protocol: as §1
# as §2, with “All MICs were determined in two independent experiments performed in duplicate.” left out
# human red blood cells = assay: Hemolytic assay; settings: human RBC in PBS pH 7.4, 37°C, 1 h, absorbance 415 nm
# Protocol: Hemolytic activity was determined by the procedure of Yoshida et al. with slight modifications. Fresh human blood (1 mL) was centrifuged at 1000 ×g for 5 min and the precipitates were collected and then washed 3 times with phosphate buffered saline (PBS) (pH 7.4). Precipitates were resuspended in 4-fold volumes of PBS. Then, 995 μL of PBS solution containing serial diluted peptides was added to a human erythrocyte solution of 5 μL. The resulting solution was incubated at 37°C for 1 h and was centrifuged at 1000 ×g for 5 min. The supernatant was diluted 5-fold with PBS and was monitored at 415 nm using a UV spectrophotometer. Zero hemolysis (blank) and 100% hemolysis were determined in PBS and 1% Triton X-100, respectively.
Substance,MIC (Staphylococcus aureus),MIC [1],MIC (Aspergillus niger),MIC (Pseudomonas aeruginosa),MIC (Escherichia coli),MIC (Klebsiella),concentration causing the lysis of whole erythrocytes (human red blood cells),"hemolysis (human red blood cells; 100% = 1% Triton X-100, tested at 10, 40, 160 and 640 μg/mL, value holds even at 640 μg/mL)"
RRWWRFPRFFRRFFR-NH2 [RFFR-15],64 µg/mL,128 µg/mL,>512 µg/mL,>512 µg/mL,256 µg/mL,>512 µg/mL,–,–
KWKKPKLLKKLLK [KWKK-13],>512 µg/mL,>512 µg/mL,>512 µg/mL,>512 µg/mL,256 µg/mL,>512 µg/mL,–,–
Melittin [reference compound],–,–,–,–,–,–,below 40 μg/mL,–
KWKYPKLLKKLLK [KW-13],16 µg/mL,4 µg/mL,256 µg/mL,128 µg/mL,64 µg/mL,128 µg/mL,–,< 1%
KFRWGKPV-NH2 [KPV-8],>512 µg/mL,>512 µg/mL,>512 µg/mL,>512 µg/mL,>512 µg/mL,>512 µg/mL,–,–
KWKLFKKIWGKPV-NH2 [KPV-13],>512 µg/mL,32 µg/mL,>512 µg/mL,>512 µg/mL,512 µg/mL,>512 µg/mL,–,–
RRWWRFPPPRFPPRFPPP-NH2 [RFPP-18],>512 µg/mL,512 µg/mL,>512 µg/mL,256 µg/mL,128 µg/mL,>512 µg/mL,–,–
